Where a SMILES comes first, the peptide text is derived from it. Where no end group is shown, it is not given here.
Each compound was assayed on isolated thymopoietin cell surface receptor protein from CEM cells (assay: not given). Conditions: 2.3×10^-10 M 125I-Tp, 4 μg receptor protein, TP 37-45 nonapeptide present, 12 h.
For C[C@H](N)C(=O)NCC(=O)N[C@H]1CSSC[C@@H](C(=O)O)NC(=O)[C@H](CO)NC(=O)[C@H]([C@@H](C)O)NC(=O)[C@H](Cc2ccccc2)NC(=O)[C@H]([C@@H](C)O)NC(=O)[C@H](CCCCN)NC(=O)[C@H](Cc2c[nH]c3ccccc23)NC(=O)[C@H](Cc2ccccc2)NC(=O)[C@H](Cc2ccccc2)NC(=O)[C@H](CC(N)=O)NC(=O)[C@H](CCCCN)NC1=O [somatostatin], the “displacement of 125I-thymopoietin (in words)” value (“displacement” below) was “no detectable displacement”. With “ACTH: adrenocorticotropic hormone (SYSMEHFRWGKPVGKKRRPVKVYPNGAEDESAEAFPLEF; Corticotropin; UniProt P01189 138-176, looked up)” the “displacement” value was “no detectable displacement”. “CRF: corticotropin-releasing factor (SEEPPISLDLTFHLLREVLEMARAEQLAQQAHSNRKLMEII; ends and bridges not checked; UniProt P06850 154-194, looked up)” was tested, and the “displacement” value was “no detectable displacement”. For “glucagon: comparison peptide in the receptor assay”, the “displacement” value was “no detectable displacement”. With “growth hormone: comparison peptide in the receptor assay” the “displacement” value was “no detectable displacement”. For ubiquitin, the “displacement” value was “no detectable displacement”. “β-endorphin: comparison peptide in the receptor assay (YGGFMTSEKSQTPLVTLFKNAIIKNAYKKGE; Beta-endorphin; UniProt P01189 237-267, looked up)” was tested, and the “displacement” value was “no detectable displacement”.

The compounds below were run on cell membrane receptor of the intact CEM cell (assay: Cyclic-GMP assay: induction of cyclic-GMP production in CEM cells). Conditions: 4-5 min incubation at 37° C., radioimmunoassay of cyclic GMP.
Type: cell-based, human
From the text: This biological activity is evidenced by an assay measuring induction of cyclic-GMP production in a human T-cell line in comparison with thymopoietin. The induction of c-GMP production by a test peptide in this assay indicates the ability of the test peptide to bind to the thymopoietin receptor site on the cell and induce thymopoietin-like biological activity.
This assay measures the ability of the test peptide to bind to the cell membrane receptor of the intact CEM cell and selectively stimulate production of cyclic-GMP, as does thymopoietin itself.
The CEM cell line was obtained from the American Type Culture Collection and was cultured in RPMI-1640 medium supplemented with 10% heat-inactivated fetal bovine serum, 10% heat-inactivated horse serum, 2mM L-glutamine, and 50 µg/ml gentamycin at 37° C. in a humid atmosphere containing 5 percent CO2, to a final density of 3-4×10^6 cells/ml. […]
The cells in TCA were then homogenized and sonicated to release cyclic nucleotide. The resulting suspension was centrifuged at 3000 g for 20 min at 4° C. and the resulting precipitate was dissolved in 0.1N NaOH and sonicated for a further 30 minutes, after which the protein content was determined by the method of Cadman, et al., Anal. Biochem., 96, 21-23 (1979). […]
CC(C)[C@@H]1NC(=O)[C@H](CC(=O)O)NC(=O)[C@H](CCCCN)NC(=O)[C@H](CCCNC(=N)N)NC(=O)[C@H](Cc2ccc(O)cc2)NC1=O [peptide 1, Cyclo-(Arg-Lys-Asp-Val-Tyr)] (cyclo(DVYRK)) was tested, and the “thymopentin-like activity (cyclic GMP induced by test peptide)” value was “demonstrated thymopentin-like activity”. CC(C)[C@@H]1NC(=O)[C@H](CC(=O)O)NC(=O)[C@H](CCCCN)NC(=O)[C@H](CCCNC(=N)N)NC(=O)CNC(=O)[C@H](Cc2ccc(O)cc2)NC1=O [peptide 2, Cyclo-[Arg-Lys-Asp-Val-Tyr-Gly]] (cyclo(DVYGRK)) was tested, and the “thymopentin-like activity (cyclic GMP induced by test peptide)” value was “demonstrated thymopentin-like activity”.

— patent US4547489A, “Conformationally restricted thymopentin-like compounds” (Ortho Pharmaceutical Corporation, priority 1984, dated 1985)
